Measurements: BindingDB's records for doi:10.1016/j.bmc.2023.117383 (Fuzhou University, 2023)

Legend:
[1] = target: T1, Crossover junction endonuclease MUS81 (Homo sapiens, UniProt Q96NY9); assay: Binding affinity to human GST-tagged MUS81-ECE1 expressed in Escherichia coli BL21(DE3)Rosetta2 cells assessed as dissociation constant by Surface plasmon resonance analysis
T1 sequence (Q96NY9 whole entry): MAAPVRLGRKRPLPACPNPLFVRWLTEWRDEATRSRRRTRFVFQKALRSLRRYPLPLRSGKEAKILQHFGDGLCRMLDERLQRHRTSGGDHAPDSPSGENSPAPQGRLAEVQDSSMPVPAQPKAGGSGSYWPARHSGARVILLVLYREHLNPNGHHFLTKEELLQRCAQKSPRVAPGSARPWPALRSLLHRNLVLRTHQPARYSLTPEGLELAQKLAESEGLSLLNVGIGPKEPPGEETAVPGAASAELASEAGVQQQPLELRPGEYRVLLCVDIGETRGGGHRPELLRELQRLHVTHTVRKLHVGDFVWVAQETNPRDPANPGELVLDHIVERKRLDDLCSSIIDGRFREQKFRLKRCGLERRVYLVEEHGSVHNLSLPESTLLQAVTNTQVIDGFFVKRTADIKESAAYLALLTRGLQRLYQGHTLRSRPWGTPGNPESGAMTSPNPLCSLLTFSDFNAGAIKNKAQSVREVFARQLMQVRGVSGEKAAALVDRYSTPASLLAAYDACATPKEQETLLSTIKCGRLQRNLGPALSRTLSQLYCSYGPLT

[2] = target: T1, Crossover junction endonuclease MUS81; assay: Binding affinity to human GST-tagged MUS81-ECE2 expressed in Escherichia coli BL21(DE3)Rosetta2 cells assessed as dissociation constant by Surface plasmon resonance analysis

- Kd [1]: 6.1 nM
- Kd [2]: 6.1 nM
Structure (SMILES): O=C(N/N=C/c1cc(O)c(O)cc1O)c1cc2ccccc2cc1O
